ChEMBL document CHEMBL1201862, “PubChem BioAssay data set” (2004)
The source made the active and inactive calls. For most assays here, no stated cut-off is given here; in the data, actives have a measured EC50 and inactives only a lower limit.

Assays:
[1] = Luminescence Cell-Based Dose Confirmation HTS to Identify Inhibitors of Platelet Dense Granule Release. [Related pubchem assays: 1663 (Primary HTS), 1678 (Summary of Project)]; format: functional
[2] = target: Luciferin 4-monooxygenase (Photinus pyralis, UniProt P08659); assay: firefly luciferase enzyme inhibitors, dose response, biochemical, luminescence (AID 1891)
Luciferin 4-monooxygenase, sequence (P08659 whole entry): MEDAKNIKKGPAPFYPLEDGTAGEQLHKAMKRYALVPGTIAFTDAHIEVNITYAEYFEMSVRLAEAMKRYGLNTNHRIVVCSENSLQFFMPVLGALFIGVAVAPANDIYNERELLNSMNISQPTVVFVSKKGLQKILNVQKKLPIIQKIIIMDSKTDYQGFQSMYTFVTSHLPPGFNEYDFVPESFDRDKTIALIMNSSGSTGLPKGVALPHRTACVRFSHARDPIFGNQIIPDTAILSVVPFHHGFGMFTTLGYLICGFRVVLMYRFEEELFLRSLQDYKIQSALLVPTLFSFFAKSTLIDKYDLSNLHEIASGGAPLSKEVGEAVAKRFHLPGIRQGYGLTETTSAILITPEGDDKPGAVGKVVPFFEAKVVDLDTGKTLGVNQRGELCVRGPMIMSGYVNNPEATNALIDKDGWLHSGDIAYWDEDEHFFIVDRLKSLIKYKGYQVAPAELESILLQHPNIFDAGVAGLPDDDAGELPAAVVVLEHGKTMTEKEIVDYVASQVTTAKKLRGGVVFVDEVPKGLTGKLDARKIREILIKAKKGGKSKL

[3] = Luminescence Cell-Based Dose Response HTS to Identify Inhibitors of 5'UTR Stem-Loop Driven Prion Protein mRNA Translation in H4 Neuroglioblastoma Cells. [Related pubchem assays: 1827 (Project Summary), 1813 (Primary HTS)]; format: functional
[4] = inhibitors of firefly luciferase expression or activity, dose response, H4 neuroglioma cells, luminescence (AID 1990); format: functional, cell-based
[5] = inhibitors of SNCA 5'UTR-driven reporter translation, confirmation, H4 neuroglioma cells, luminescence (AID 1988); format: functional, cell-based
[6] = inhibitors of intracellular T. cruzi replication, confirmation, NIH3T3 host cells, beta-gal luminescence (AID 2044); format: functional, cell-based;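 further: intracellular parasites grown in NIH/3T3 mouse fibroblasts as host cells; luminescent beta-galactosidase reporter signal from transgenic T. cruzi replicating inside host cells; inhibitors lower the luminescence signal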
Streptococcus = assay: Group A Streptococcus viability loss, dose response, counter-screen for streptokinase expression inhibitor project, luminescence, BacTiterGlo (AID 1915); format: functional, organism-based;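 further: potency for reduction of bacterial viability or growth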
[7] = system: Streptococcus sp. 'group A'; assay: growth inhibition of control SK(-) GAS strain, dose response, counter-screen for streptokinase expression inhibitor project, luminescence, kanamycin, BacTiterGlo, confirmation (AID 1900); format: functional, organism-based
Streptokinase A = target: T1, Streptokinase A (Streptococcus pyogenes serotype M1, UniProt P10520); assay: S. pyogenes streptokinase expression inhibitors, potency, dose response, plasminogen activation absorbance, OD405 (AID 1914); format: functional, Streptococcus pyogenes M1 GAS;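 further: secreted streptokinase activity via plasminogen activation per viability signal from cell pellet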
T1 sequence (P10520 whole entry): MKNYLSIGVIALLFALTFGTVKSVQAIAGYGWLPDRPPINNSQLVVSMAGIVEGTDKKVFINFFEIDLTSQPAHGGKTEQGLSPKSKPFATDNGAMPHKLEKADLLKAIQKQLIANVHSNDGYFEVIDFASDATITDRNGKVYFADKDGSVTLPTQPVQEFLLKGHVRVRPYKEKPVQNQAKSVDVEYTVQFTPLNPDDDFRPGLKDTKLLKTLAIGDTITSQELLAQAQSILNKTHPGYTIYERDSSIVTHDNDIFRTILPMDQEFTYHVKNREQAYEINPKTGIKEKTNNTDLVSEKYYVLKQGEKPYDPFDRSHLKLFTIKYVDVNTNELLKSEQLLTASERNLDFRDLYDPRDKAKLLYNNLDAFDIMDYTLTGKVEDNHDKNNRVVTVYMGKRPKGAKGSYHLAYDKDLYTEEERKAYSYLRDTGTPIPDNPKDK

INS1 = assay: beta cell apoptosis inhibitors, cytokine rescue, dose response, luminescence, retest (AID 449756); format: functional, cell-based; details: Rattus norvegicus;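 further: cell death triggered by IL-1 beta plus TNF-alpha plus IFN-gamma mixture; protective hits raise ATP signal compared with cytokine alone wells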
[8] = cytotoxicity toward NIH3T3 fibroblasts, dose response, counter-screen, cell-based, ATP luminescence, mouse fibroblasts (AID 2010); format: functional;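 further: cells exposed to compound for about 90 hours before reading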
[9] = target: T2, Heat shock factor protein 1 (Mus musculus, UniProt P38532); assay: inhibition of MG132-induced HSE-luciferase signal, confirmation, cell-based, NIH3T3, luminescence, dose retest (AID 2382); format: functional;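 further: NIH3T3 fibroblasts with HSF1-driven luciferase reporter stressed by proteasome inhibitor MG132; luminescence from HSF1-driven luciferase expression after 8 hours of MG132 stress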
T2 sequence (P38532 whole entry): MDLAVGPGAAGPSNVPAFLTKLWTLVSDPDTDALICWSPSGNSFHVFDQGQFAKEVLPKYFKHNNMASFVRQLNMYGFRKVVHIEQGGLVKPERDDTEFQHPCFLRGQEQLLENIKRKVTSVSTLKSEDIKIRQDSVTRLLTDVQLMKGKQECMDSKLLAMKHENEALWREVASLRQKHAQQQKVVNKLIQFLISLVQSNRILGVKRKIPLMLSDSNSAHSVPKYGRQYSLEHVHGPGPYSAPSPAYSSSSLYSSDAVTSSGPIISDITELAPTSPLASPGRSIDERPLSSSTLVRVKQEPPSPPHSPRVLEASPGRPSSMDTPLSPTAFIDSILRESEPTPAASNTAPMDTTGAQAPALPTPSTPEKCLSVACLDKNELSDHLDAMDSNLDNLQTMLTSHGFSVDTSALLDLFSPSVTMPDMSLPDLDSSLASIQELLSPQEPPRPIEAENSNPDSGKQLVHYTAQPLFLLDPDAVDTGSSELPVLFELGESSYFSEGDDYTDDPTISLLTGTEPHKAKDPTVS

H9c2 = assay: cells; format: functional, cell-based; details: Rattus norvegicus, H9c2, Myocardium
Cytochrome P450 1A2 = target: T3, Cytochrome P450 1A2 (Homo sapiens, UniProt P05177);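 further: PubChem cytochrome P450 panel assay, CYP1A2 panel member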
T3 sequence (P05177 whole entry): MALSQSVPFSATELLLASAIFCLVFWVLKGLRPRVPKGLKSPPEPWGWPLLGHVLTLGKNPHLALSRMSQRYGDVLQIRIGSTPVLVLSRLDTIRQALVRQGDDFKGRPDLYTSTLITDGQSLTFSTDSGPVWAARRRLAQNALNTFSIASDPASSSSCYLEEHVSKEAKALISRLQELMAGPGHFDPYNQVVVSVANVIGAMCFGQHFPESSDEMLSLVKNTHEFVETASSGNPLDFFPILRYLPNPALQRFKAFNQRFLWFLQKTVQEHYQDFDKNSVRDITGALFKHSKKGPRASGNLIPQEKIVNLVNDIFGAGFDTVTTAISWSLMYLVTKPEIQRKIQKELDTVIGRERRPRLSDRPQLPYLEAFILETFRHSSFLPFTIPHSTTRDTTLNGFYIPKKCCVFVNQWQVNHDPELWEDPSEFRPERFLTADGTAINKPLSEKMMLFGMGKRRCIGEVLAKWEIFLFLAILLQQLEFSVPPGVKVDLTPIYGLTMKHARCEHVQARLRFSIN

Cytochrome P450 3A4 = Cytochrome P450 3A4 (Homo sapiens, UniProt P08684);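 further: CYP3A4 tested as one member of a cytochrome P450 panel screen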
Cytochrome P450 3A4, sequence (P08684 whole entry): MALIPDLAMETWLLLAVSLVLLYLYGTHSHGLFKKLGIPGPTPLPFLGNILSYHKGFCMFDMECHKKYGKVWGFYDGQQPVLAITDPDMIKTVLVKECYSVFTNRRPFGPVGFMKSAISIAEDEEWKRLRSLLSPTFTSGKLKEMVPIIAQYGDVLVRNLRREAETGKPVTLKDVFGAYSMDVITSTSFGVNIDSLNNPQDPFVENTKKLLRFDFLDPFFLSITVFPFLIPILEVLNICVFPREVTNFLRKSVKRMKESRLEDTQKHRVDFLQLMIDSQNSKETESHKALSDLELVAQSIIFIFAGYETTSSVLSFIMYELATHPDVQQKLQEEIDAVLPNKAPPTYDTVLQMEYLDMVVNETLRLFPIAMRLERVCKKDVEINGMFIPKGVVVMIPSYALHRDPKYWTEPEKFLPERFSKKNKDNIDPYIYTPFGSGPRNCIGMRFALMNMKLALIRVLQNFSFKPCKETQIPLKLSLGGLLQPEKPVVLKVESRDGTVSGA

Paired box protein Pax-8 = Paired box protein Pax-8 (Homo sapiens, UniProt Q06710); assay: inhibitors of PAX8-driven TPO luciferase reporter, dose response, RMG-I cells, cherry-pick (AID 687027); format: functional, cell-based;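 further: luciferase reporter driven by Pax8 target thyroperoxidase promoter measured by SteadyGlo luminescence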
Paired box protein Pax-8, sequence (Q06710 whole entry): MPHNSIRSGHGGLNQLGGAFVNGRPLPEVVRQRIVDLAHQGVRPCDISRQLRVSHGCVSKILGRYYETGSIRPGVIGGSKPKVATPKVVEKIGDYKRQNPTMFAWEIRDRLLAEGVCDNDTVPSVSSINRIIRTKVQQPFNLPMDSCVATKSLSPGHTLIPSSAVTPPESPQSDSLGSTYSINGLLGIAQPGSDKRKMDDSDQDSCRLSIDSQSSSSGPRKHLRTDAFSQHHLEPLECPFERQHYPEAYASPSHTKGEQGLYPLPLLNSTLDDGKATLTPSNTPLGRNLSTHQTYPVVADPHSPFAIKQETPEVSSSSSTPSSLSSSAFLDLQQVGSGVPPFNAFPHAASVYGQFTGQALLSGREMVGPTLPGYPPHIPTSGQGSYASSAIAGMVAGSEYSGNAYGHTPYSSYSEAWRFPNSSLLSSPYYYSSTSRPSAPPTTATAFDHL

Cytochrome P450 2D6 = Cytochrome P450 2D6 (Homo sapiens, UniProt P10635);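 further: CYP2D6 member of a cytochrome P450 panel assay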
Cytochrome P450 2D6, sequence (P10635 whole entry): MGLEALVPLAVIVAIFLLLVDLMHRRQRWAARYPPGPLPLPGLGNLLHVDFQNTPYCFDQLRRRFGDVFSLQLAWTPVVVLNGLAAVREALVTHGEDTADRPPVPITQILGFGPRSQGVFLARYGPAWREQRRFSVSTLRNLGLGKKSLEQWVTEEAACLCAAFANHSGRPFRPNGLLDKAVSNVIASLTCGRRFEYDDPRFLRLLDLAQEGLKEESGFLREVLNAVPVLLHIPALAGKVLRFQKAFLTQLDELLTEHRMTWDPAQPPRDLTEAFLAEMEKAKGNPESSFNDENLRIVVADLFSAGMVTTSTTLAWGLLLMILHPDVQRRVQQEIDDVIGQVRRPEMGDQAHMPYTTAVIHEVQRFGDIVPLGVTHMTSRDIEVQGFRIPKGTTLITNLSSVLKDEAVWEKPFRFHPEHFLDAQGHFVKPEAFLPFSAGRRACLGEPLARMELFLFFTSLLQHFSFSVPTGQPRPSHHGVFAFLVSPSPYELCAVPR
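Wherever IC50 is given: confirmatory concentration-response retest of ultra-high-throughput screening hits for modulation of myocardial damage; cell death induced by hydrogen peroxide oxidative stress; compound pretreatment for 60 min then peroxide exposure for 2 h; potency is for protecting the cells against peroxide damage rather than for killing them.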

## COc1ccc(OCC(=O)Nc2nc3ccccc3[nH]2)cc1
[1]
  EC50: > 112 µM (not active)
[2]
  EC50: > 112 µM (not active)

## COC(=O)c1sccc1NC(=O)Nc1cccc(OC)c1
[1]
  EC50: 4.37 µM (active)
[2]
  EC50: 1.31 µM (active)

## Cc1nc(O)nc(O)c1/C=C/C(=O)OCC(C)C
[3]
  EC50: > 120 µM (not active)
[4]
  EC50: 22.7 µM (active)
[5]
  EC50: 15.5 µM (active)

## CCCCNc1c(-c2ccc(SC3CCCCC3)cc2)nc2ccccn12
[6]
  EC50: 1.2 µM (active)
Streptococcus
  EC50: 8.23 µM (active)
[7]
  EC50: 8.18 µM (active)
Streptokinase A
  EC50: > 150 µM (not active)
INS1
  AC50: 5.33 µM (active)
[8]
  EC50: > 30 µM (not active)

## O=C(CC(=O)c1ccccc1[N+](=O)[O-])c1ccccc1
[9]
  EC50: > 195 µM (not active)

## COc1ccc(CC(=O)NCC2CCCN(Cc3ccccc3Cl)C2)cc1 (stereo not given)
[9]
  EC50: > 195 µM (not active)

## O=C(Oc1cc(=O)oc2c1c(=O)n1c3c(cccc23)CC1)c1ccc(F)cc1
[9]
  EC50: 22.2 µM (active)

## CCN(Cc1cc(=O)oc2cc(C)ccc12)c1ccccc1
[9]
  EC50: > 195 µM (not active)

## Cc1ccc(-c2nnc(O)c3ccccc23)cc1S(=O)(=O)NCCO
H9c2
  IC50: > 79 µM (inactive)

## CC1CCCN(C(=O)C2CCN(S(=O)(=O)c3ccc4c(c3)CC(C)N4C(=O)C3CC3)CC2)C1 (stereo not given)
[9]
  EC50: > 195 µM (not active)

## CCn1c(O)cc(=O)nc1SCC(=O)N1CCOCC1
[9]
  EC50: > 195 µM (not active)

## COCCN1CN=C(Nc2nc3ccccc3o2)NC1
[1]
  EC50: > 112 µM (not active)
Cytochrome P450 1A2
  AC50: 22.4 µM (inconclusive)
[2]
  EC50: > 112 µM (not active)

## COc1c(C)cc(Br)cc1C(=O)Nc1cccc(-c2nc3ncccc3o2)c1
H9c2
  IC50: > 79 µM (inactive)

## Cc1ccc(C(c2c(C)n(C)n(-c3ccccc3)c2=O)c2c(C)n(C)n(-c3ccccc3)c2=O)s1
H9c2
  IC50: > 79 µM (inactive)

## COc1ccc2oc(=O)c(C(=O)N3CCCC3)cc2c1
[1]
  EC50: > 112 µM (not active)
[2]
  EC50: > 112 µM (not active)

## COc1ccc(N(CC(=O)NCc2ccc(F)cc2)C(=O)Cn2nnc(-c3ccc(C)o3)n2)cc1OC
[9]
  EC50: > 195 µM (not active)

## O=C(NCc1ccccc1C(F)(F)F)C12CN(Cc3ccccc3)CC1C(c1ccc([N+](=O)[O-])cc1)=NO2 (stereo not given)
[9]
  EC50: > 195 µM (not active)

## CN1CCC(N(C)C(=O)CCc2nc(O)c3ccccc3n2)CC1
Cytochrome P450 3A4
  AC50: 28.2 µM (inconclusive)
H9c2
  IC50: > 79 µM (inactive)

## CC(CN1CCOCC1)OC(=O)C(c1ccccc1)c1ccccc1 (stereo not given)
[9]
  EC50: > 195 µM (not active)

## COc1ccc(C(=O)N2CCCC(c3nc(-c4ccc(OC)c(OC)c4)no3)C2)c(OC)c1 (stereo not given)
[1]
  EC50: > 112 µM (not active)
[2]
  EC50: > 112 µM (not active)

## COC(=O)c1ccc(CSc2nnc(N)s2)cc1
[1]
  EC50: > 112 µM (not active)
[2]
  EC50: > 112 µM (not active)

## COC1=C(Nc2ccccc2OC)C(=O)c2ccccc2C1=O
INS1
  AC50: 38.3 µM (active)

## O=c1c2ccccc2nc2c3ccccc3c(NCCO)nn12
H9c2
  IC50: 20.2 µM (active)

## NC(=O)c1oc2ccccc2c1NC(=O)c1ccco1
H9c2
  IC50: 17 µM (active)

## CCOC(=O)c1nn(-c2ccc3c(c2)CCN3C(C)=O)cc1O
[1]
  EC50: > 112 µM (not active)
[2]
  EC50: > 112 µM (not active)

## O=C(c1ccco1)N1CCN(Cc2nc3ccc([N+](=O)[O-])cc3c(=O)n2-c2ccccc2F)CC1
H9c2
  IC50: 27.6 µM (active)

## CCC(=O)Nc1c(-c2ccc(Cl)cc2)c(=O)c2ccccc2n1C
[9]
  EC50: > 195 µM (not active)

## O=C1c2cccnc2Oc2ccc(Cl)cc2N1Cc1ccc(F)cc1
[9]
  EC50: > 195 µM (not active)
H9c2
  IC50: > 79 µM (inactive)

## CCc1cc(CNC(=O)c2ccc3nc(Cc4ccc(OC)c(OC)c4)oc3c2)on1
INS1
  AC50: 3.62 µM (active)

## O=C(NCc1cccs1)c1csc2ccccc12
[1]
  EC50: > 112 µM (not active)
[2]
  EC50: > 112 µM (not active)

## Nc1cc2nc(O)c3ccccc3c2cc1Br
H9c2
  IC50: > 79 µM (inactive)

## COc1cc(C2C3=C(COC3=O)OC(C)(C)Oc3cc4c(cc32)OCO4)cc(OC)c1OC (stereo not given)
Paired box protein Pax-8
  AC50: 1.78 µM (active)

## COc1cc(-c2cnc3c(NC=O)cc(-c4cccnc4)cn23)cc(OC)c1OC
H9c2
  IC50: 22.4 µM (active)

## COc1cccc(-c2cnc3c(NC=O)cc(-c4ccc(OC)cc4OC)cn23)c1
Paired box protein Pax-8
  AC50: 2.93 µM (active)

## CC(=O)c1cccc(NC(=O)C(C)OC(=O)Cc2nnc(O)c3ccccc23)c1 (stereo not given)
H9c2
  IC50: > 79 µM (inactive)

## Brc1cc2c(cc1/C=N/Nc1nc(N3CCCC3)nc(N3CCOCC3)n1)OCO2
Cytochrome P450 2D6
  AC50: 28.2 µM (inconclusive)
H9c2
  IC50: > 79 µM (inactive)
Cytochrome P450 1A2
  AC50: 15.8 µM (inconclusive)

## CC/C(C)=N\N=C\c1c(O)n(CC)c2cc(C3=NNC(=O)CC3)ccc12
[1]
  EC50: 6.14 µM (active)
H9c2
  IC50: 11.9 µM (active)
[2]
  EC50: > 112 µM (not active)

## COc1ccc(/N=C/C2=C(O)c3ccccc3C2=O)cc1
[1]
  EC50: 3.93 µM (active)
[2]
  EC50: 0.576 µM (active)

## C[C@H]1CCCCO[C@H](CN(C)S(=O)(=O)c2ccc(Cl)cc2)[C@@H](C)CN([C@@H](C)CO)C(=O)c2cc(NS(=O)(=O)c3ccc(Cl)cc3)ccc2O1
Paired box protein Pax-8
  AC50: 5.52 µM (active)

## C[C@@H]1CN([C@@H](C)CO)C(=O)c2cc(NS(=O)(=O)c3ccc(F)cc3)ccc2O[C@@H](C)CCCCO[C@H]1CN(C)Cc1ccc(C(F)(F)F)cc1
Paired box protein Pax-8
  AC50: 7.5 µM (active)

## C[C@@H]1CN([C@H](C)CO)C(=O)c2cc(NC(=O)c3ccncc3)ccc2O[C@@H](C)CCCCO[C@H]1CN(C)Cc1ccc(C(F)(F)F)cc1
Paired box protein Pax-8
  AC50: 12 µM (active)

## Cc1ccc(CO/N=C/c2c(O)cc(C)oc2=O)cc1
[9]
  EC50: > 195 µM (not active)
